Assay results: patent publication US20240189388A1, “MEDICATION FOR TREATING LUNG INJURY” (SHANGHAI SEME CELL TECHNOLOGY CO., LTD., priority 2021, published 2024)

Columns and labels:
rats with a lung injury [1] = assay: BALF white blood cell count and classification (Example 2); type: in vivo, Sprague-Dawley rats; conditions: D3, 0.75 mg/kg i.v. twice, 6 rats, x ± SD
Protocol: (§1) D0: The animals in the normal control group were intraperitoneally injected with sodium chloride injection (1 ml/kg), while the animals in other groups were intraperitoneally injected with lipopolysaccharides (1 mg/kg, 1 ml/kg).
(§2) D1: After 16 h (+30 min) of intraperitoneal injection, the animals were anesthetized by inhaling isoflurane. The animals in the normal control group were nebulized with sodium chloride injection (1 mL/kg) in the trachea, while the animals in other groups were nebulized with lipopolysaccharides (5 mg/kg, 1 ml/kg) in the trachea.
(§3) Administration frequency and duration: On D1, the animals were administered for the first time within 3 h after the intratracheal nebulization with the modeling reagent (LPS); and on D2, the animals were administered for the second time. The interval between the two administrations was about 24 h (+20 min).
(§4) Sample collection: After the animals were euthanatized, the skin and tissues of the neck and chest were incised to expose the trachea, bronchi, and lungs. The bronchi in the right lung were separated and ligated. A suture was threaded under the trachea, a ½ incision was made between cartilage rings of the trachea at an appropriate position under the thyroid cartilage, a trachea cannula was slowly inserted along the incision into the airway to a left bronchus, and the inserted cannula was fastened with the trachea by using the threaded suture at an appropriate position in a centripetal direction of the incision. 3 ml of PBS buffer was slowly injected with a syringe for bronchoalveolar lavage. The lavage was repeated 3 times, with each remaining for about 10 seconds. The lavage solution was collected into a centrifuge tube of appropriate capacity.
(§5) BALF treatment: The collected lavage solution was centrifuged at 4° C. and approximately 2000 rpm for 20 min. The supernatant was stored below −60° C. for later use. The precipitate was re-suspended with I mL of PBS buffer for count and classification of white blood cells. The supernatant after BALF centrifugation was managed as a sample by using a Watson LIMS7.5 system.
Classification and test of white blood cells: White blood cells in the re-suspended BALF were counted and classified by a fully automatic blood cell analyzer.

rats with a lung injury [2] = assay: BALF inflammatory factors and total protein (Example 2); type: in vivo, Sprague-Dawley rats
Protocol: as §1, §2, §3, §4, §5
Test of total protein content in the BALF: At the end of the experiment, the total protein content in the BALF was tested by a total protein test kit (BCA method).
Test of inflammatory factors in the BALF: At the end of the experiment, the inflammatory factors (IL-1β, IL-6, IL-10, and TNF-α) in the BALF were tested by an inflammatory factor test kit.

[3] = test system: LPS-induced acute respiratory distress syndrome; assay: BALF neutrophil count and percentage, LPS-induced ARDS rat model (Example 1); type: in vivo, SD rats
Protocol: Normal adult male SD rats were randomly grouped, 5 rats in each group. The animals were intraperitoneally injected and nebulized in the trachea with lipopolysaccharides (LPS) as a modeling reagent, as shown in Table 1:
The animals in groups G1 and G2 were intraperitoneally injected with lipopolysaccharides (0.8 mg/kg. body weight) according to their body weight, anesthetized by inhaling isoflurane after 16 h of the intraperitoneal injection, and nebulized with lipopolysaccharides (5 mg/kg. body weight) in the trachea.
Intraperitoneal injection with lipopolysaccharides (LPS): According to the body weight of the animals, each animal was administered with lipopolysaccharides by intraperitoneal injection with a disposable micro syringe.
Intratracheal nebulization with lipopolysaccharides (LPS): Each animal was anesthetized by inhaling isoflurane and then fixed on a rat fixator placed at a 45° angle, the root of the animal's tongue was pressed by a small animal anesthesia laryngoscope to expose the glottis, a pulmonary micro liquid nebulizer needle (blunt) that extracted a quantitative solution of LPS was gently inserted into the trachea, then the piston was quickly pushed to atomize the LPS solution into the lung, the needle was quickly pulled out, and the animal was taken down from the fixator and rotated left and right with its head facing upwards to distribute LPS as evenly as possible in each lung lobe.
The animals were administered for the first time within 1 h after the intratracheal nebulization with the modeling reagent (LPS), and the second time after 24 h.
The day after the end of the second administration (48 h after the intratracheal nebulization with the modeling reagent).
Collection of samples: On the day after the second administration, all groups of animals were euthanized with CO2, then their abdominal cavities were opened, and their abdominal arteries were cut for bleeding. […] Precipitated cells were re-suspended with 1 ML PBS, and total cells in the BALF were counted by a blood cell counter and trypan blue staining. […]

rats with a lung injury [4] = assay: Inflammatory factors in serum (Example 2); type: in vivo, Sprague-Dawley rats
Protocol: as §1, §2, §3
Collection of blood sample: About 1 mL of abdominal aortic blood of each animal was collected into a centrifuge tube containing a separation gel and a coagulant.
Treatment of blood sample: After collection, the blood sample was stored and transported at room temperature, and centrifuged within 2 hours under the conditions: 3000 g, room temperature, and 10 minutes. The serum after centrifugation was transferred to a new labeled centrifuge tube and divided into 2 tubes, which were temporarily stored below −60° C. At the end of the experiment, inflammatory factors (IL-1β, IL-6, IL-10, and TNF-α) in the serum were tested by a reagent kit. The blood sample was managed by the Watson LIMS7.5 system.

rats with a lung injury [5] = assay: Wet/dry ratio of the lung (Example 2); type: in vivo, Sprague-Dawley rats
Protocol: as §1, §2, §3
During the autopsy, whether the lungs, trachea, and bronchi of the animals were abnormal were observed. […]
Foreign matters such as blood and tissue fluid on the surface of the middle lobe tissues of the right lung were wiped with a paper towel, the right lung was weighed, then the middle lobe tissues of the right lung were placed in a 60° C. oven for 72 h, the right lung was weighed again, and the wet/dry weight ratio of the lung was calculated. […]

[6] = D3, 0.75 mg/kg i.v. twice, 6 rats, x ± SD
[7] = test sample group vs model control group
[8] = G2 mean, 5 rats, 1 mg/kg caudal vein injection twice, 48 h after LPS nebulization

Annexin A5
Lymphocytes in BALF (rats with a lung injury [1]): 0.58 ± 0.22 ×10^9 cells/L
Monocytes in BALF (rats with a lung injury [1]): 0.38 ± 0.47 ×10^9 cells/L
Neutrophils in BALF (rats with a lung injury [1]): 2.54 ± 2.07 ×10^9 cells/L
White blood cell in BALF (rats with a lung injury [1]): 3.63 ± 2.05 ×10^9 cells/L
IL-1β in BALF (rats with a lung injury [2]; [6]): 107.45 ± 51.12 pg/mL
IL-6 in BALF (rats with a lung injury [2]; [6]): 14.42 ± 23.92 pg/mL
IL-10 in BALF (rats with a lung injury [2]; [6]): 0.92 ± 2.23 pg/mL
TNF-α in BALF (rats with a lung injury [2]; [6]): 4.54 ± 4.63 pg/mL
Total proteins in BALF (rats with a lung injury [2]; [6]): 461.31 ± 187.36 µg/mL
Change of BALF white blood cell counts, total protein and inflammatory factors (rats with a lung injury [2]; [7]): significantly decreased
Effect on count of neutrophils (Neu cells) in the BALF ([3]; G2 compared to model control group G1): significantly inhibited
Neu cell counts in the BALF [3, 8]: 7.03 *10^6
Percentages of Neu cells in the BALF [3, 8]: 36.80%
IL-1β in serum (rats with a lung injury [4]; [6]): 15.41 ± 25.29 pg/mL
IL-6 in serum (rats with a lung injury [4]; [6]): 0.00 ± 0.00 pg/mL
IL-10 in serum (rats with a lung injury [4]; [6]): 18.35 ± 9.84 pg/mL
TNF-α in serum (rats with a lung injury [4]; [6]): 0.00 ± 0.00 pg/mL
Change of inflammatory factors in the serum (rats with a lung injury [4]; [7]): significantly decreased to similar levels as the normal control group
Wet/dry ratio of the lung (rats with a lung injury [5]; middle lobe of right lung, 0.75 mg/kg i.v. twice, 6 rats, x ± SD): 4.68 ± 0.08
Change of wet/dry ratio of the lung (rats with a lung injury [5]; test sample group): decreased
